Reference: patent US20230399287A1, “NOVEL COMPOUNDS” (Sitryx Therapeutics Limited, priority 2020, published 2023)

Experiments:
[1] = test system: NRF2; test: NRF2 +/- GSH activation assay (DiscoverX PathHunter NRF2 translocation kit); type: cell-based; settings: for EC50: Homo sapiens, U2OS, U2OS PathHunter cells
[2] = test system: IL-1β; test: THP-1 AlphaLISA IL-1β cytokine assay; type: cell-based; settings: for IC50: Homo sapiens, THP-1, differentiated THP-1 cells, LPS 24 hr then Nigericin 1 hour
How it was run: (§1)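 THP-1 cells differentiated with PMA for 72 h, pre-incubated with compound for 30 min, primed with LPS for 24 h, then given nigericin for 1 h at 37 °C. IL-1β and IL-6 in supernatants were read by AlphaLISA. % inhibition was set against ±LPS controls and IC50 taken from concentration–response curves.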

[3] = test system: IL-6; test: THP-1 AlphaLISA IL-6 cytokine assay; type: cell-based; settings: for IC50: Homo sapiens, THP-1, differentiated THP-1 cells, LPS 24 hr then Nigericin 1 hour
How it was run: as §1

[4] = test system: hepatocytes; test: Hepatocyte stability assay (mouse); type: in vitro ADME; settings: 10 μM compound, 60 min
How it was run: (§2)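 Cryopreserved human or mouse hepatocytes (0.5×10^6 cells/mL in Leibovitz buffer) were incubated with 10 μM compound (0.1% DMSO) at 37° C in duplicate, alongside a buffer-only control. Samples taken from 0 to 60 min were analysed by LC-MS/MS. Half-life and Clint (μL min^−1 10^−6 cells) came from the ln % remaining versus time slope.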

[5] = Hepatocyte stability assay (mouse); type: in vitro ADME; settings: mouse, cryopreserved hepatocytes, 10 μM compound, 60 min, read-out: T½
How it was run: as §2

[6] = test system: hepatocytes; test: Hepatocyte stability assay (human); type: in vitro ADME; settings: 10 μM compound, 60 min
How it was run: as §2

[7] = Hepatocyte stability assay (human); type: in vitro ADME; settings: human, cryopreserved hepatocytes, 10 μM compound, 60 min, read-out: T½
How it was run: as §2

[8] = +GSH, normalised to dimethyl fumarate high control
[9] = −GSH, normalised to dimethyl fumarate high control
[10] = THP-1 cells, statement in words

SMILES	Emax ([1]; +GSH, data from repeated experiments) [%]	Emax [1, 8] [%]	EC50 ([1]; +GSH) [µM]	EC50 ([1]; −GSH) [µM]	Emax ([1]; −GSH, data from repeated experiments) [%]	Emax [1, 9] [%]	IC50 [2] [µM]	cytokine-lowering potencies for IL-1β compared to dimethyl itaconate, dimethyl fumarate and 4-octyl itaconate [2, 10]	IC50 [3] [µM]	cytokine-lowering potencies for IL-6 compared to dimethyl itaconate [3, 10]	Clint [4] [μL min^−1 10^−6 cells]	half-life at 10 μM [5] [h]	Clint [6] [μL min^−1 10^−6 cells]	half-life at 10 μM [7] [h]
C=C(CC(=O)OC1(c2ccc(C(F)(F)F)cc2)CCC1)C(=O)O [Example 1, 2-methylene-4-oxo-4-(1-(4-(trifluoromethyl)phenyl)cyclobutoxy)butanoic acid]	14	10	> 100	> 100	17	37	0.8	much improved cytokine-lowering potencies	62	improved cytokine-lowering potencies	13	2.52	11	1.93
C=C(CC(=O)OC(C)(C)c1ccc(C(F)(F)F)cc1)C(=O)O [Example 2, 2-methylene-4-oxo-4-((2-(4-(trifluoromethyl)phenyl)propan-2-yl)oxy)butanoic acid]		0	> 100	> 100		0	0.8		> 63.1		35	0.583	8	2.83
C=C(CC(=O)OC1(c2ccc(C(F)(F)F)cc2)CCCC1)C(=O)O [Example 7, 2-methylene-4-oxo-4-((1-(4-(trifluoromethyl)phenyl)cyclopentyl)oxy)butanoic acid]		0	> 100	> 100		6	3.7		> 100		14	1.97	20	1.1
C=C(CC(=O)OC1(c2ccc(Cl)cc2)CCC1)C(=O)O [Example 8, 4-(1-(4-chlorophenyl)cyclobutoxy)-2-methylene-4-oxobutanoic acid]		0	> 100	> 100		24	2.6		64.5		26	1.08	11	2.07
C=C(CC(=O)OC1(c2ccc(SC(F)(F)F)cc2)CCC1)C(=O)O [Example 9, 2-methylene-4-oxo-4-(1-(4-((trifluoromethyl)thio)phenyl)cyclobutoxy)butanoic acid]		6	> 100	> 100		14	2.8		> 100		44	0.633	15	1.52
C=C(CC(=O)OC1(c2ccc(C(F)(F)F)cc2)CC1)C(=O)O [Example 11, 2-methylene-4-oxo-4-(1-(4-(trifluoromethyl)phenyl)cyclopropoxy)butanoic acid]		0	> 100	> 100		11	1.4		> 100		24	1.18	6	3.62
C=C(CC(=O)OC1(c2ccc(C(F)(F)F)c(Cl)c2)CCC1)C(=O)O [Example 12, 4-(1-(3-chloro-4-(trifluoromethyl)phenyl)cyclobutoxy)-2-methylene-4-oxobutanoic acid]		46	> 100	81.6		66	4.5		82.6		42	0.75	46	0.617
C=C(CC(=O)OCc1ccc(C(F)(F)F)cc1)C(=O)O [Example 13, 2-methylene-4-oxo-4-((4-(trifluoromethyl)benzyl)oxy)butanoic acid]		25	> 100	38.7		54	5.9		> 100		42	0.617	<3	> 7.67
C/C(=C\C(=O)OC1(c2ccc(C(F)(F)F)cc2)CCC1)C(=O)O [Example 21, (E)-2-methyl-4-oxo-4-(1-(4-(trifluoromethyl)phenyl)cyclobutoxy)but-2-enoic acid]		4	> 100	> 100		0	7.3		49.7		71	0.45	31	0.917
C=C(CC(=O)OC1(c2ccc(-c3ccc(C(F)(F)F)cc3)cc2)CCC1)C(=O)O [Example 26, 2-methylene-4-oxo-4-(1-(4′-(trifluoromethyl)-[1,1′-biphenyl]-4-yl)cyclobutoxy)butanoic acid]		34	> 100	24.1		88	42		3.7		>460	< 0.05	238	0.1
C=C(CC(=O)OC1(c2ccc(C#CC(F)(F)F)cc2)CCC1)C(=O)O [Example 36, 2-methylene-4-oxo-4-(1-(4-(3,3,3-trifluoroprop-1-yn-1-yl)phenyl)cyclobutoxy)butanoic acid]		90	8.6	9		116	> 31.6		5.6		>460	< 0.05	12	1.87
C=C(CC(=O)OC1(c2ccc(C(F)(F)F)cc2)CSC1)C(=O)O [Example 40, 2-methylene-4-oxo-4-((3-(4-(trifluoromethyl)phenyl)thietan-3-yl)oxy)butanoic acid]		9	> 100	1.7		61	0.8		> 100		25	1.48	12	1.68
C=C(CC(=O)OC1(c2ccc(C(F)(F)F)cn2)CC1)C(=O)O [Example 58, 2-methylene-4-oxo-4-(1-(5-(trifluoromethyl)pyridin-2-yl)cyclopropoxy)butanoic acid]		0	> 100	> 100		1	3.2		> 42.2		5	5.45	5	6.2
C=C(CC(=O)OC1(c2ccc(C(F)(F)F)nn2)CCC1)C(=O)O [Example 62, 2-methylene-4-oxo-4-(1-(6-(trifluoromethyl)pyridazin-3-yl)cyclobutoxy)butanoic acid]		4	> 100	> 100		1	5		> 31.6		4	7.23	<3	> 7.67
